# Data taken from patent publication US12121521B2, “Uses of salt-inducible kinase (SIK) inhibitors for treating osteoporosis” (The General Hospital Corporation, priority 2016, dated 2024).
# Assays:
# Assay in all cases: ScanEDGE kinase panel (DiscoverX)
# Assay type in all cases: binding
# Conditions in all cases: read-out: % of control activity at 71 nM
# AXL = target: T1, AXL (Homo sapiens, UniProt P30530)
# T1 construct: T7 phage fusion (most kinases) or DNA tag for qPCR (HEK-293-made kinases); purchased DiscoverX (Fremont, CA); host or cells: E. coli BL21-derived host (T7 phage) or HEK-293
# Description: (§1) ScanEDGE kinase assays paneling specificity across a panel of 96 representative kinases were performed by DiscoverX (Fremont, CA). For most assays, kinase-tagged T7 phage strains were grown in parallel in 24-well blocks in an E. coli host derived from the BL21 strain. Bacteria were grown to log phase and infected with T7 phage from frozen stock (MOI=0.4) and incubated with shaking at 32° C. until lysis (90-150 minutes). The lysates were centrifuged (6000×g) and filtered (0.2 μm) to remove cell debris. The remaining kinases were produced in HEK-293 cells and subsequently tagged with DNA for qPCR detection. […] The liganded beads were blocked with excess biotin and washing with blocking buffer (SeaBlock (Pierce), 1% BSA, 0.05% Tween 20, 1 mM DTT) to remove unbound ligand and to reduce non-specific phage binding. […] Test compounds were prepared as 40× stocks in 100% DMSO and directly diluted into the assay. All reactions were performed in polypropylene 384 well plates in a final volume of 40 μl. […] The kinase concentration in the eluates was measured by qPCR.
# BRAF = target: T2, BRAF (Homo sapiens, UniProt P15056)
# T2 construct: T7 phage fusion (most kinases) or DNA tag for qPCR (HEK-293-made kinases); purchased DiscoverX (Fremont, CA); host or cells: E. coli BL21-derived host (T7 phage) or HEK-293
# Description: as §1
# CDK7 = target: T3, CDK7 (Homo sapiens, UniProt P50613)
# T3 construct: T7 phage fusion (most kinases) or DNA tag for qPCR (HEK-293-made kinases); purchased DiscoverX (Fremont, CA); host or cells: E. coli BL21-derived host (T7 phage) or HEK-293
# T3 sequence (P50613 whole entry, the tested form may be a part): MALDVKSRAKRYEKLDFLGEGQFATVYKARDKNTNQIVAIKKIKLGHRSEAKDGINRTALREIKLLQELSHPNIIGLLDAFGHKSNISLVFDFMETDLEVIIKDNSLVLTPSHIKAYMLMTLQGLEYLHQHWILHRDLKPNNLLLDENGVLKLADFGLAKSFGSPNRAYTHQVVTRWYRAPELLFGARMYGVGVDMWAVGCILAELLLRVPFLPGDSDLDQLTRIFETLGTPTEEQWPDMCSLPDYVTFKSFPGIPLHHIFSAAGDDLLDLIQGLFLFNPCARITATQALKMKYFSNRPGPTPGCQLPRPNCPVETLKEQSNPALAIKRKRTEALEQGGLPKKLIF
# Description: as §1
# DCAMKL1 = target: T4, DCAMKL1 (Homo sapiens, UniProt O15075)
# T4 construct: T7 phage fusion (most kinases) or DNA tag for qPCR (HEK-293-made kinases); purchased DiscoverX (Fremont, CA); host or cells: E. coli BL21-derived host (T7 phage) or HEK-293
# T4 sequence (O15075 whole entry, the tested form may be a part): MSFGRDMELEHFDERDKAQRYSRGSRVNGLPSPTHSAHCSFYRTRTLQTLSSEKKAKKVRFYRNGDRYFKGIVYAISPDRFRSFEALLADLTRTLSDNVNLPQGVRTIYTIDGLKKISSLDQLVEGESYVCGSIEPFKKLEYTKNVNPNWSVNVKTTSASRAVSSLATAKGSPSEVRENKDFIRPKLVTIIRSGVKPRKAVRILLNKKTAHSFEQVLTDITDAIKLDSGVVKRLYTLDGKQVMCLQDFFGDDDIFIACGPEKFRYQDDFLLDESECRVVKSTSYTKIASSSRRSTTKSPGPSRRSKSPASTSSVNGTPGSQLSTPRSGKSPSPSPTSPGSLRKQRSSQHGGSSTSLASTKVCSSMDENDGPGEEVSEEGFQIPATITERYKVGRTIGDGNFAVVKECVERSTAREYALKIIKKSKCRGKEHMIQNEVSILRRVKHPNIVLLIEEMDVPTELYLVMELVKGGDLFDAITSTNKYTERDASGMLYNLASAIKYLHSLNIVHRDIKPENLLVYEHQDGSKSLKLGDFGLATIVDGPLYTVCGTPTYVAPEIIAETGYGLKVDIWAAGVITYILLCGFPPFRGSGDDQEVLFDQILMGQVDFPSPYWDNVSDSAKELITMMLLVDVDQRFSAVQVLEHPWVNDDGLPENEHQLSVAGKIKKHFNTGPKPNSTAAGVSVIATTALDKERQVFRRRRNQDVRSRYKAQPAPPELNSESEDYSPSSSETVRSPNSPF
# Description: as §1
# DYRK1B = target: T5, DYRK1B (Homo sapiens, UniProt Q9Y463)
# T5 construct: T7 phage fusion (most kinases) or DNA tag for qPCR (HEK-293-made kinases); purchased DiscoverX (Fremont, CA); host or cells: E. coli BL21-derived host (T7 phage) or HEK-293
# Description: as §1
# EGFR = target: T6, EGFR (Homo sapiens, UniProt P00533)
# T6 construct: T7 phage fusion (most kinases) or DNA tag for qPCR (HEK-293-made kinases); purchased DiscoverX (Fremont, CA); host or cells: E. coli BL21-derived host (T7 phage) or HEK-293
# Description: as §1
# IKK-beta = target: T7, IKK-beta (Homo sapiens, UniProt O14920)
# T7 construct: T7 phage fusion (most kinases) or DNA tag for qPCR (HEK-293-made kinases); purchased DiscoverX; host or cells: E. coli BL21-derived host (T7 phage) or HEK-293
# Description: as §1
# KIT = target: T8, KIT (Homo sapiens, UniProt P10721)
# T8 construct: T7 phage fusion (most kinases) or DNA tag for qPCR (HEK-293-made kinases); purchased DiscoverX; host or cells: E. coli BL21-derived host (T7 phage) or HEK-293
# Description: as §1
# LKB1 = target: T9, LKB1 (Homo sapiens, UniProt Q15831)
# T9 construct: T7 phage fusion (most kinases) or DNA tag for qPCR (HEK-293-made kinases); purchased DiscoverX; host or cells: E. coli BL21-derived host (T7 phage) or HEK-293
# T9 sequence (Q15831 whole entry, the tested form may be a part): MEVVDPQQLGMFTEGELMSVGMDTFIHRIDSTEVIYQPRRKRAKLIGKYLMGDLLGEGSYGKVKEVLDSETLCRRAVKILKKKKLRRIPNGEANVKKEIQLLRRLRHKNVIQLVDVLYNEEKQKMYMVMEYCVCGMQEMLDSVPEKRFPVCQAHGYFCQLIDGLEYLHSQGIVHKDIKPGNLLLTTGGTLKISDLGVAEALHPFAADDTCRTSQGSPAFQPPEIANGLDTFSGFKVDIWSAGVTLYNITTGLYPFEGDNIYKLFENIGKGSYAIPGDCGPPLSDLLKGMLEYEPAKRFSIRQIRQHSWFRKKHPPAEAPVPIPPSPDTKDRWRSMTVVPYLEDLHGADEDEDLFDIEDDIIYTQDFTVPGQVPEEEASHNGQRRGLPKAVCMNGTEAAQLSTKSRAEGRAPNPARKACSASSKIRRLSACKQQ
# Description: as §1
# MAP3K4 = target: T10, MAP3K4 (Homo sapiens, UniProt Q9Y6R4)
# T10 construct: T7 phage fusion (most kinases) or DNA tag for qPCR (HEK-293-made kinases); purchased DiscoverX; host or cells: E. coli BL21-derived host (T7 phage) or HEK-293
# Description: as §1
# MEK1 = target: T11, MEK1 (Homo sapiens, UniProt Q02750)
# T11 construct: T7 phage fusion (most kinases) or DNA tag for qPCR (kinases made in HEK-293); purchased DiscoverX; host or cells: E. coli BL21-derived host (T7 phage) or HEK-293
# T11 sequence (Q02750 whole entry, the tested form may be a part): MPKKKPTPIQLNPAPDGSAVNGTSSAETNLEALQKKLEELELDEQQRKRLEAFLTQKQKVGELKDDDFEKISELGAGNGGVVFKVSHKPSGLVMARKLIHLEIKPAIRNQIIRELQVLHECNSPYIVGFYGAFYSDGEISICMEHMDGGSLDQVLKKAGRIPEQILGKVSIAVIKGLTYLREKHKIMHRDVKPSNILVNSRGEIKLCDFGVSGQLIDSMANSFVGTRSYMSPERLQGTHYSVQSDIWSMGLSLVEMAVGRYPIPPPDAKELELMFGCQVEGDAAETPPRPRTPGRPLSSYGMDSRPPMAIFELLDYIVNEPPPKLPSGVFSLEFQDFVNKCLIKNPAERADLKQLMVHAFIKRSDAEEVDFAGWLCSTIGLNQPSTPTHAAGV
# Description: as §1
# MET = target: T12, MET (Homo sapiens, UniProt P08581)
# T12 construct: T7 phage fusion (most kinases) or DNA tag for qPCR (kinases made in HEK-293); purchased DiscoverX; host or cells: E. coli BL21-derived host (T7 phage) or HEK-293
# Description: as §1
# MKNK1 = target: T13, MKNK1 (Homo sapiens, UniProt Q9BUB5)
# T13 construct: T7 phage fusion (most kinases) or DNA tag for qPCR (kinases made in HEK-293); purchased DiscoverX; host or cells: E. coli BL21-derived host (T7 phage) or HEK-293
# T13 sequence (Q9BUB5 whole entry, the tested form may be a part): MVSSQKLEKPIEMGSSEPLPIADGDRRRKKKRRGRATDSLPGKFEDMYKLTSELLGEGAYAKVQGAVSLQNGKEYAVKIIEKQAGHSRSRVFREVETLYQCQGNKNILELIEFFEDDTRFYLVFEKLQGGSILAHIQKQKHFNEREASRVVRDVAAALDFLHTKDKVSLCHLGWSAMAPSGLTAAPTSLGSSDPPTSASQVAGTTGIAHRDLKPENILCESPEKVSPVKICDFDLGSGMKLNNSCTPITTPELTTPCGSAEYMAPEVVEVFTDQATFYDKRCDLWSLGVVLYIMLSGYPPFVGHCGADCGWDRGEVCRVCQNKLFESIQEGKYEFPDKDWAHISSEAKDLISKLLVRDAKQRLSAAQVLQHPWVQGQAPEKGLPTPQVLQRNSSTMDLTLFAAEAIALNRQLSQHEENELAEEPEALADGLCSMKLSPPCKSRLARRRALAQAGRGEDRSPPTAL
# Description: as §1
# PDGFRB = target: T14, PDGFRB (Homo sapiens, UniProt P09619)
# T14 construct: T7 phage fusion (most kinases) or DNA tag for qPCR (kinases made in HEK-293); purchased DiscoverX; host or cells: E. coli BL21-derived host (T7 phage) or HEK-293
# Description: as §1
# PDPK1 = target: T15, PDPK1 (Homo sapiens, UniProt O15530)
# T15 construct: T7 phage fusion (most kinases) or DNA tag for qPCR (kinases made in HEK-293); purchased DiscoverX; host or cells: E. coli BL21-derived host (T7 phage) or HEK-293
# T15 sequence (O15530 whole entry, the tested form may be a part): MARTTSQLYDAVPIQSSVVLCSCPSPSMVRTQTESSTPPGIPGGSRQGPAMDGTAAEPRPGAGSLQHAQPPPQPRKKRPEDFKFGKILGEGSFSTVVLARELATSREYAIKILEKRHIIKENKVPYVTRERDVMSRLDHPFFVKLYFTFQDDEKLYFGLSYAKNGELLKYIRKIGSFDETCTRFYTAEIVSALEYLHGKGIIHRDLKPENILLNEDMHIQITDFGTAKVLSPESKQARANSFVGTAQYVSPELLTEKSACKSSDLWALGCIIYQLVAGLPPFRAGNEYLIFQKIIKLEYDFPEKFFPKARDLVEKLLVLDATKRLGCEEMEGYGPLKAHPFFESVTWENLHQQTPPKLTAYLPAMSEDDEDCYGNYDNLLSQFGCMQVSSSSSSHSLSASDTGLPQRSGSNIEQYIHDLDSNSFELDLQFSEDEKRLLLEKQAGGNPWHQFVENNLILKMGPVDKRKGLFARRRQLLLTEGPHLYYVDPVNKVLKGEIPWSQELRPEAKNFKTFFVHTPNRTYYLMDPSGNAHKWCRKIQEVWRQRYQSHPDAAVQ
# Description: as §1
# PIK3C2B = target: T16, PIK3C2B (Homo sapiens, UniProt O00750)
# T16 construct: T7 phage fusion (most kinases) or DNA tag for qPCR (kinases made in HEK-293); purchased DiscoverX; host or cells: E. coli BL21-derived host (T7 phage) or HEK-293
# T16 sequence (O00750 whole entry, the tested form may be a part): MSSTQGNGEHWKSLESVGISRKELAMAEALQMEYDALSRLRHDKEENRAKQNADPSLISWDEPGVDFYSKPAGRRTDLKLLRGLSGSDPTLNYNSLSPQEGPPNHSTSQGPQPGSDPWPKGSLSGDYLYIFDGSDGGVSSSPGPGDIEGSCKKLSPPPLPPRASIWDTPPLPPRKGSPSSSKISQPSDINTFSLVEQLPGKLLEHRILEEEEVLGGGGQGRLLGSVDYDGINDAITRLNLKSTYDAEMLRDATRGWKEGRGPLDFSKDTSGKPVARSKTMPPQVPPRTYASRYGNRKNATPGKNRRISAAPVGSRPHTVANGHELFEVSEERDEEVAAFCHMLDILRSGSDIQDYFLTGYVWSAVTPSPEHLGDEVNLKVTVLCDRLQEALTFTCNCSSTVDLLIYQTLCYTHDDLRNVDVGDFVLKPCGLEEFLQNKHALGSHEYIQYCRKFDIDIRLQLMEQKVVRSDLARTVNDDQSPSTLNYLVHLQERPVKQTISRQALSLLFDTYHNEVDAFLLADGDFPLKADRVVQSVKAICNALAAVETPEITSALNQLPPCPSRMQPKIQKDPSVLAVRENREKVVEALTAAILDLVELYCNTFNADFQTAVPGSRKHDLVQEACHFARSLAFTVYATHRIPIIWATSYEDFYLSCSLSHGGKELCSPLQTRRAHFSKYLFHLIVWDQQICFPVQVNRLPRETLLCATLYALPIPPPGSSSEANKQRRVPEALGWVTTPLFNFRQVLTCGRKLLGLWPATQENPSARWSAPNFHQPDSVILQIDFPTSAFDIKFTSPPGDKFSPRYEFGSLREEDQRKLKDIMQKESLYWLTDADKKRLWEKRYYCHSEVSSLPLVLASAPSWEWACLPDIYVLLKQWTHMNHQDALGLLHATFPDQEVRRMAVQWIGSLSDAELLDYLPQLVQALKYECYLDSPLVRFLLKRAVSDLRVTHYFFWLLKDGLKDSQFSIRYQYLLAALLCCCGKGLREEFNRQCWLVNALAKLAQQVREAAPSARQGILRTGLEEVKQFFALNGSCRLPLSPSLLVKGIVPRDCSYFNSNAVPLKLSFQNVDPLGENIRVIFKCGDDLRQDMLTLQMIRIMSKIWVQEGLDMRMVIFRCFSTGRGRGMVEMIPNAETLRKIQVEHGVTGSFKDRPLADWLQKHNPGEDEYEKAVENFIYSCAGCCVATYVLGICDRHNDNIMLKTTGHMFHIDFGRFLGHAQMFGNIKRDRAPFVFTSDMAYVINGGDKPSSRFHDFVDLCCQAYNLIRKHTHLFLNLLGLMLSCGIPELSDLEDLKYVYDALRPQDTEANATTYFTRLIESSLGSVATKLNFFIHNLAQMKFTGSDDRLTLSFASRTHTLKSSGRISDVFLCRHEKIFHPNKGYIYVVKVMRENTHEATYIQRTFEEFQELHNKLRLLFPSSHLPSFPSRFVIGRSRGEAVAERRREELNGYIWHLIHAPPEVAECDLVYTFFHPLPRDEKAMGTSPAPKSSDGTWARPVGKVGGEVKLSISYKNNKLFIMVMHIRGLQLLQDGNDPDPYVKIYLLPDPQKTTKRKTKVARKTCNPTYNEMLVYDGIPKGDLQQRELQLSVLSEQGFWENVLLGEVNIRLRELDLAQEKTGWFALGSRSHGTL
# Description: as §1
# PIK3CA = target: T17, PIK3CA (Homo sapiens, UniProt P42336)
# T17 construct: T7 phage fusion (most kinases) or DNA tag for qPCR (kinases made in HEK-293); purchased DiscoverX; host or cells: E. coli BL21-derived host (T7 phage) or HEK-293
# Description: as §1
# PIK3CG = target: T18, PIK3CG (Homo sapiens, UniProt P48736)
# T18 construct: T7 phage fusion (most kinases) or DNA tag for qPCR (kinases made in HEK-293); purchased DiscoverX; host or cells: E. coli BL21-derived host (T7 phage) or HEK-293
# Description: as §1
# PIM2 = target: T19, PIM2 (Homo sapiens, UniProt Q9P1W9)
# T19 construct: T7 phage fusion (most kinases) or DNA tag for qPCR (kinases made in HEK-293); purchased DiscoverX; host or cells: E. coli BL21-derived host (T7 phage) or HEK-293
# T19 sequence (Q9P1W9 whole entry, the tested form may be a part): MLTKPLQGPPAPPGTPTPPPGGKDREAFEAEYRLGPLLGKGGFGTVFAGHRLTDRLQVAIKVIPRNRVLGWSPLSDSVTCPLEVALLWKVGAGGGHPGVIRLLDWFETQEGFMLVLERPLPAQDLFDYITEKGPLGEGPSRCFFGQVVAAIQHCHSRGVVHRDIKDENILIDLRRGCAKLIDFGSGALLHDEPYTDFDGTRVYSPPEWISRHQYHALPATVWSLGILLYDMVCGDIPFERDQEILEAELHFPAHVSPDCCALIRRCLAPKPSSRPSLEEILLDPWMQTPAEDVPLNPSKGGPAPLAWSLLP
# Description: as §1
compound,measurement,setting,value
COc1ccc(N2C(=O)N(c3c(C)cccc3C)Cc3cnc(Nc4ccc(C5CCN(C)CC5)c(OC)c4)nc32)c(OC)c1 [YKL-05-093],remaining binding at 0.071 µM,AXL,68%
same,remaining binding at 0.071 µM,BRAF,66%
same,remaining binding at 0.071 µM,CDK7,85%
same,remaining binding at 0.071 µM,DCAMKL1,89%
same,remaining binding at 0.071 µM,DYRK1B,93%
same,remaining binding at 0.071 µM,EGFR,5.9%
same,remaining binding at 0.071 µM,IKK-beta,84%
same,remaining binding at 0.071 µM,KIT,1.8%
same,remaining binding at 0.071 µM,LKB1,85%
same,remaining binding at 0.071 µM,MAP3K4,60%
same,remaining binding at 0.071 µM,MEK1,20%
same,remaining binding at 0.071 µM,MET,92%
same,remaining binding at 0.071 µM,MKNK1,76%
same,remaining binding at 0.071 µM,PDGFRB,0.35%
same,remaining binding at 0.071 µM,PDPK1,55%
same,remaining binding at 0.071 µM,PIK3C2B,100%
same,remaining binding at 0.071 µM,PIK3CA,84%
same,remaining binding at 0.071 µM,PIK3CG,80%
same,remaining binding at 0.071 µM,PIM2,97%
